# Measurements taken from PMC10894281, “Kinetic characterization of human mRNA guanine-N7 methyltransferase” (Scientific Reports, 2024).
# Legend:
# Type in all cases: biochemical
# [1] = target: T1, RNA cap guanine-N7 methyltransferase (hRNMT) (Homo sapiens, UniProt O43148); test: radiometric scintillation proximity methyltransferase assay (3H-SAM, biotinylated RNA); design: gene RNMT; RNMT (1–476), full length
# [2] = target: T1, RNA cap guanine-N7 methyltransferase (hRNMT); test: steady-state kinetics, apparent Km by radiometric scintillation proximity assay; design: gene RNMT; RNMT (1–476), full length; also catalytic domain RNMT (123–476); details: read-out: Km^app
# [3] = target: T1, RNA cap guanine-N7 methyltransferase (hRNMT); test: radiometric scintillation proximity methyltransferase assay (3H-SAM, biotinylated RNA); product inhibition; design: gene RNMT; RNMT (1–476), full length
# T1 sequence (O43148 whole entry, the tested form may be a part): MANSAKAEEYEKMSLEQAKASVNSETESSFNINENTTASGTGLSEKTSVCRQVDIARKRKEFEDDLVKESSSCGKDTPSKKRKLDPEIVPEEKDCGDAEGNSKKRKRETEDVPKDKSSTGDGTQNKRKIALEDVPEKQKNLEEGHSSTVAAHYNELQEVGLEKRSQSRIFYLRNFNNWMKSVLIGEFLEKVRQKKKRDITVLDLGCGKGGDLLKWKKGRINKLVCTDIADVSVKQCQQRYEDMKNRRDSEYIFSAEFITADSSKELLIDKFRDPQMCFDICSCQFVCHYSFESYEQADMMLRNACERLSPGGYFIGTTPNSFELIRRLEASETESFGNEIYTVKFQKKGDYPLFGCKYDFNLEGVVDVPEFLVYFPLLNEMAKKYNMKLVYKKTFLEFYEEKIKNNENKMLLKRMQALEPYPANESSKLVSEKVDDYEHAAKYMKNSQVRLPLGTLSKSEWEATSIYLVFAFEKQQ
smiles,measurement,setting,value
Cc1ccc(C(=O)Nc2ccc(S(=O)(=O)O)c3cc(S(=O)(=O)O)cc(S(=O)(=O)O)c23)cc1NC(=O)c1cccc(NC(=O)Nc2cccc(C(=O)Nc3cc(C(=O)Nc4ccc(S(=O)(=O)O)c5cc(S(=O)(=O)O)cc(S(=O)(=O)O)c45)ccc3C)c2)c1 [Suramin],IC50,[1]; read-out: IC50,5 ± 0.4 nM
C[S+](CC[C@H](N)C(=O)[O-])C[C@H]1O[C@@H](n2cnc3c(N)ncnc32)[C@H](O)[C@@H]1O (stereo partly shown) [SAM],Km,[2],0.19 ± 0.038 µM
Nc1ncnc2c1ncn2[C@@H]1O[C@H](CSCC[C@H](N)C(=O)O)[C@@H](O)[C@H]1O [SAH],IC50,[3],389 ± 110 nM
Nc1ncnc2c1ncn2[C@@H]1O[C@H](C[C@@H](N)CC[C@H](N)C(=O)O)[C@@H](O)[C@H]1O [Sinefungin],IC50,[1],3 ± 0.6 nM
